Drawing on US10316035B2, “Triazolopyridine inhibitors of myeloperoxidase” (BRISTOL-MYERS SQUIBB COMPANY, priority 2015, dated 2019), this text covers IC50 for 29 molecules.

SMILES strings stand for the structures.

What is called IC50 is the concentration that inhibits the measured activity by half.

The assay has as its target T1, myeloperoxidase (MPO) (Homo sapiens, UniProt P05164).
T1 sequence (P05164 49-745): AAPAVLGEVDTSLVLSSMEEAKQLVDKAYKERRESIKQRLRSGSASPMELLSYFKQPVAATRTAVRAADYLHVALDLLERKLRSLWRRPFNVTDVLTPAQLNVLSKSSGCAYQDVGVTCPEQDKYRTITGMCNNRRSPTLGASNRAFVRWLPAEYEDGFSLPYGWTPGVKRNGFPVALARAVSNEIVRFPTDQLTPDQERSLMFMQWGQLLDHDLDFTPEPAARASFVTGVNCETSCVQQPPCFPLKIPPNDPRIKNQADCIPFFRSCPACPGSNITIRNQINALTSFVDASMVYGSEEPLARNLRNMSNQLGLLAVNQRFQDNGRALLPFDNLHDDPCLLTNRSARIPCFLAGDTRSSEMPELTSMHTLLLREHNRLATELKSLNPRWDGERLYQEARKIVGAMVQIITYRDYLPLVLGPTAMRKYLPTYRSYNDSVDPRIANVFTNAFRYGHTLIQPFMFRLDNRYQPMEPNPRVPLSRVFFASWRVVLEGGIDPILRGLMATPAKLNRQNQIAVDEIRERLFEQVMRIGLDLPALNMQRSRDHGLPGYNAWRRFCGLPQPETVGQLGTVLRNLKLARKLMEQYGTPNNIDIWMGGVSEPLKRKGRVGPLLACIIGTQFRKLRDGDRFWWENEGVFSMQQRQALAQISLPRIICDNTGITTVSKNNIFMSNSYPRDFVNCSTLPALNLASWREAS
Briefly: MPO peroxidation assay (Amplex Red assay). Type of assay: biochemical. As to conditions: MPO peroxidation, potency range class; read-out: Amplex Red IC50. The gist of the method:
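Peroxidase turnover of Amplex Red to fluorescent resorufin (Ex 535/Em 590 nm) was followed for 15 min in 100 mM KPi, pH 7.4, after 10 min room-temperature preincubation of compound with 200 pM enzyme plus 40 nM H2O2. The substrate mix contained 200 μM Amplex Red and 10 mM H2O2. IC50s came from linear-phase rates (180–540 s) fitted with a Hill equation.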
`COC(=O)c1cn(-c2ccc(COc3cc(N)nc4[nH]nnc34)c(OC(F)(F)F)c2)cn1` [Example 264, methyl 1-(4-(((5-amino-3H-[1,2,3]triazolo[4,5-b]pyridin-7-yl)oxy)methyl)-3-(trifluoromethoxy)phenyl)-1H-imidazole-4-carboxylate]: the IC50 was 101 to 999 nM.
Consider `Nc1cc(OCc2ccc(-n3cnc(CO)c3)cc2OC(F)(F)F)c2nn[nH]c2n1` [Example 265, (1-(4-(((5-amino-3H-[1,2,3]triazolo[4,5-b]pyridin-7-yl)oxy)methyl)-3-(trifluoromethoxy)phenyl)-1H-imidazol-4-yl)methanol], for which the IC50 lay in the range of 1 to 100 nM.
Take `CN(C)Cc1cn(-c2ccc(COc3cc(N)nc4[nH]nnc34)c(OC(F)(F)F)c2)cn1` [Example 266, 7-((4-(4-((dimethylamino)methyl)-1H-imidazol-1-yl)-2-(trifluoromethoxy)benzyl)oxy)-3H-[1,2,3]triazolo[4,5-b]pyridin-5-amine]: the half-maximal inhibitory concentration (IC50) is 101 to 999 nM.
Consider `Nc1cc(OCc2ccc(-n3cncn3)cc2OC(F)(F)F)c2nn[nH]c2n1` [Example 267, 7-((4-(1H-1,2,4-triazol-1-yl)-2-(trifluoromethoxy)benzyl)oxy)-3H-[1,2,3]triazolo[4,5-b]pyridin-5-amine], for which the IC50 lay in the range of 1 to 100 nM.
Then `Cc1nccn1-c1ccc(COc2cc(N)nc3[nH]nnc23)c(OC(F)(F)F)c1` [Example 268, 7-((4-(2-methyl-1H-imidazol-1-yl)-2-(trifluoromethoxy)benzyl)oxy)-3H-[1,2,3] triazolo[4,5-b]pyridin-5-amine], with 1 to 100 nM.
As for `N#Cc1cnn(-c2ccc(COc3cc(N)nc4[nH]nnc34)c(OC(F)(F)F)c2)c1` [Example 270, 1-(4-(((5-amino-3H-[1,2,3]triazolo[4,5-b]pyridin-7-yl)oxy)methyl)-3-(trifluoromethoxy)phenyl)-1H-pyrazole-4-carbonitrile], the IC50 is 1 to 100 nM.
Then `Nc1cc(OCc2ccc(-n3cnc(C(F)(F)F)c3)cc2OC(F)(F)F)c2nn[nH]c2n1` [Example 272, 7-((2-(trifluoromethoxy)-4-(4-(trifluoromethyl)-1H-imidazol-1-yl)benzyl)oxy)-3H-[1,2,3]triazolo[4,5-b] pyridin-5-amine], with 101 to 999 nM; and `Cc1cn(-c2ccc(COc3cc(N)nc4[nH]nnc34)c(OC(F)(F)F)c2)cn1` [Example 273, 7-((4-(4-methyl-1H-imidazol-1-yl)-2-(trifluoromethoxy)benzyl)oxy)-3H-[1,2,3] triazolo[4,5-b]pyridin-5-amine], with 101 to 999 nM.
For the molecule `N#Cc1cc(-n2cnc3ccccc32)ccc1COc1cc(N)nc2[nH]nnc12` [Example 274, 2-(((5-amino-3H-[1,2,3]triazolo[4,5-b]pyridin-7-yl)oxy)methyl)-5-(1H-benzo[d]imidazol-1-yl)benzonitrile], the IC50 was in the range of 101 to 999 nM.
Take `Cc1cn(-c2ccc(COc3cc(N)nc4[nH]nnc34)c(C#N)c2)cn1` [Example 276, 2-(((5-amino-3H-[1,2,3]triazolo[4,5-b]pyridin-7-yl)oxy)methyl)-5-(4-methyl-1H-imidazol-1-yl)benzonitrile]: the IC50 was in the range of 101 to 999 nM.
`Nc1cc(OCc2c(F)cc(-n3ccnc3)cc2F)c2nn[nH]c2n1` [Example 279, 7-((2,6-difluoro-4-(1H-imidazol-1-yl)benzyl)oxy)-3H-[1,2,3]triazolo[4,5-b] pyridin-5-amine]: the IC50 lay within 101 to 999 nM.
To `CS(=O)(=O)c1cc(-n2ccnc2)ccc1COc1cc(N)nc2[nH]nnc12` [Example 280, 7-((4-(1H-imidazol-1-yl)-2-(methylsulfonyl)benzyl)oxy)-3H-[1,2,3]triazolo[4,5-b] pyridin-5-amine] belongs 101 to 999 nM; to `Nc1cc(OCc2c(F)cc(-n3ncc4ccccc43)cc2F)c2nn[nH]c2n1` [Example 281, 7-((2,6-difluoro-4-(1H-indazol-1-yl)benzyl)oxy)-3H-[1,2,3]triazolo[4,5-b]pyridin-5-amine], 1 to 100 nM; to `CS(=O)(=O)c1cc(-n2ncc3ccccc32)ccc1COc1cc(N)nc2[nH]nnc12` [Example 282, 7-((4-(1H-indazol-1-yl)-2-(methylsulfonyl)benzyl)oxy)-3H-[1,2,3]triazol[4,5-b] pyridin-5-amine], 1 to 100 nM.
On to `Nc1cc(OCc2ccc(-c3cccnc3)cc2OC(F)(F)F)c2nn[nH]c2n1` [Example 285, 7-((4-(Pyridin-3-yl)-2-(trifluoromethoxy)benzyl)oxy)-3H-[1,2,3]triazolo[4,5-b]pyridin-5-amine], for which the IC50 fell in the range of 1 to 100 nM.
For the molecule `CNS(=O)(=O)c1ccc(-c2ccc(COc3cc(N)nc4[nH]nnc34)c(OC(F)(F)F)c2)cc1` [Example 286, 4′-(((5-amino-3H-[1,2,3]triazolo[4,5-b]pyridin-7-yl)oxy)methyl)-N-methyl-3′-(trifluoromethoxy)-[1,1′-biphenyl]-4-sulfonamide], the IC50 was 1 to 100 nM.
In the case of `COc1ncc(-c2ccc(COc3cc(N)nc4[nH]nnc34)c(OC(F)(F)F)c2)cn1` [Example 288, 7-((4-(2-methoxypyrimidin-5-yl)-2-(trifluoromethoxy)benzyl)oxy)-3H-[1,2,3] triazolo[4,5-b]pyridin-5-amine], the IC50 was in the range of 101 to 999 nM.
Regarding `CSc1ccc(-c2ccc(COc3cc(N)nc4[nH]nnc34)c(OC(F)(F)F)c2)cn1` [Example 289, 7-((4-(6-(methylthio)pyridin-3-yl)-2-(trifluoromethoxy)benzyl)oxy)-3H-[1,2,3] triazolo[4,5-b]pyridin-5-amine], the IC50 is 1 to 100 nM.
In the case of `COc1ccc(-c2ccc(COc3cc(N)nc4[nH]nnc34)c(OC(F)(F)F)c2)cn1` [Example 290, 7-((4-(6-methoxypyridin-3-yl)-2-(trifluoromethoxy)benzyl)oxy)-3H-[1,2,3] triazolo[4,5-b]pyridin-5-amine], the IC50 was 1 to 100 nM.
Consider `Nc1ccc(-c2ccc(COc3cc(N)nc4[nH]nnc34)c(OC(F)(F)F)c2)cn1` [Example 291, 7-((4-(6-aminopyridin-3-yl)-2-(trifluoromethoxy)benzyl)oxy)-3H-[1,2,3]triazolo[4,5-b] pyridin-5-amine], for which the IC50 was 1 to 100 nM.
Consider `N#Cc1ccc(-c2ccc(COc3cc(N)nc4[nH]nnc34)c(OC(F)(F)F)c2)cn1` [Example 292, 5-(4-(((5-amino-3H-[1,2,3]triazolo[4,5-b]pyridin-7-yl)oxy)methyl)-3-(trifluoromethoxy)phenyl)picolinonitrile], for which the IC50 fell in the range of 1 to 100 nM.
Consider `CC(C)Oc1ccc(-c2ccc(COc3cc(N)nc4[nH]nnc34)c(OC(F)(F)F)c2)cn1` [Example 293, 7-((4-(6-isopropoxypyridin-3-yl)-2-(trifluoromethoxy)benzyl)oxy)-3H-[1,2,3] triazolo[4,5-b]pyridin-5-amine], for which the IC50 lay in the range of 101 to 999 nM.
In the case of `CS(=O)(=O)c1cncc(-c2ccc(COc3cc(N)nc4[nH]nnc34)c(OC(F)(F)F)c2)c1` [Example 294, 7-((4-(5-(methylsulfonyl)pyridin-3-yl)-2-(trifluoromethoxy)benzyl)oxy)-3H-[1,2,3] triazolo[4,5-b]pyridin-5-amine], the IC50 was 101 to 999 nM.
`CS(=O)(=O)N1CCN(c2ccc(-c3ccc(COc4cc(N)nc5[nH]nnc45)c(OC(F)(F)F)c3)cn2)CC1` [Example 295, 7-((4-(6-(4-(methylsulfonyl)piperazin-1-yl)pyridin-3-yl)-2-(trifluoromethoxy)benzyl)oxy)-3H-[1,2,3] triazolo[4,5-b]pyridin-5-amine]: the IC50 lay within 101 to 999 nM.
For the molecule `Nc1cc(OCc2ccc(-c3ccc(CO)nc3)cc2OC(F)(F)F)c2nn[nH]c2n1` [Example 296, (5-(4-(((5-amino-3H-[1,2,3]triazolo[4,5-b]pyridin-7-yl)oxy)methyl)-3-(trifluoromethoxy)phenyl)pyridin-2-yl)methanol], the IC50 was 1 to 100 nM.
Take `Nc1cc(OCc2ccc(-c3ccc(N4CCNCC4)nc3)cc2OC(F)(F)F)c2nn[nH]c2n1` [Example 297, 7-((4-(6-(piperazin-1-yl)pyridin-3-yl)-2-(trifluoromethoxy)benzyl)oxy)-3H-[1,2,3] triazolo[4,5-b]pyridin-5-amine]: the IC50 was 1 to 100 nM.
To `CN1CCN(c2cc(-c3ccc(COc4cc(N)nc5[nH]nnc45)c(OC(F)(F)F)c3)ccn2)CC1` [Example 299, 7-((4-(2-(4-methylpiperazin-1-yl)pyridin-4-yl)-2-(trifluoromethoxy)benzyl)oxy)-3H-[1,2,3] triazolo[4,5-b]pyridin-5-amine] belongs 1 to 100 nM.
On to `CN1CCN(c2ccc(-c3ccc(COc4cc(N)nc5[nH]nnc45)c(OC(F)(F)F)c3)cn2)CC1` [Example 300, 7-((4-(6-(4-methylpiperazin-1-yl)pyridin-3-yl)-2-(trifluoromethoxy)benzyl)oxy)-3H-[1,2,3] triazolo[4,5-b]pyridin-5-amine], for which the half-inhibitory concentration (IC50) was 1 to 100 nM.
Then `Nc1cc(OCc2ccc(-c3cccc(S(N)(=O)=O)c3)cc2OC(F)(F)F)c2nn[nH]c2n1` [Example 301, 4′-(((5-amino-3H-[1,2,3]triazolo[4,5-b]pyridin-7-yl)oxy)methyl)-3′-(trifluoromethoxy)-[1,1′-biphenyl]-3-sulfonamide], with 1 to 100 nM.
